Data as given in paper PMC12693182, “Synthesis and QSAR Studies of Claramine Derivatives, a New Class of Broad-Spectrum Antimicrobial Agents” (Molecules, 2025).
In brackets after ≈: the same amount, converted by molar mass. Where two headings read alike, the source gives them in different places.

Legend:
S. aureus 340 = test: MIC, broth microdilution; format: cell-based, Staphylococcus aureus; conditions: for MIC: Staphylococcus aureus, 340, 24 h; for MIC S. aureus 340: 24 h
Protocol: (§1) Antimicrobial activity of the compounds was studied by determination of minimal inhibitory concentrations (MIC) according to the NCCLS guidelines M7-A2 using the microbroth dilution methods. The bacteria strains were grown on trypticase soy agar (Becton Dickinson) at 37 °C for 24 h. Inocula were prepared in TCE (tryptone 0.1%, […], wt/vol) by ajusting the turbidity at 623 nm to obtain 1–3 10^5 CFU/mL.
(§2) Antimicrobial activities of the compounds were determined by using a broth microdilution method performed in sterile 96-well microplates. All compounds were solubilized in water at a concentration of 10 mM and were transferred to each microplate well in order to obtain a two-fold serial dilution in 100 µL of broth and 100 µL of inoculum containing 2–6 10^5 CFU of each bacterium were added to each well. Some wells were reserved for positive controls and inoculum viability.

S. aureus ATCC 25923 = test: MIC, broth microdilution; format: cell-based, Staphylococcus aureus; conditions: Staphylococcus aureus, ATCC25923, 24 h, ATCC strain
Protocol: as §1, §2

S. intermedius 1051997 = test: MIC, broth microdilution; format: cell-based, Staphylococcus intermedius; conditions: Staphylococcus intermedius, 1051997, 24 h, 24 h
Protocol: as §1, §2

E. faecalis ATCC29212 = test: MIC, broth microdilution; format: cell-based, Enterococccus faecalis; conditions: Enterococcus faecalis, ATCC29212, 24 h, ATCC strain, read-out: MIC E. faecalis 29212
Protocol: as §1, §2

E. coli ATCC 25922 = test: MIC, broth microdilution; format: cell-based, Escherichia coli; conditions: Escherichia coli, ATCC25922, 24 h, ATCC strain
Protocol: as §1, §2

P. aeruginosa 1051575 = test: MIC, broth microdilution; format: cell-based, Pseudomonas aeruginosa; conditions: 24 h; for MIC: Pseudomonas aeruginosa, 1051575, 24 h
Protocol: as §1, §2

P. aeruginosa ATCC 27853 = test: MIC, broth microdilution; format: cell-based, Pseudomonas aeruginosa; conditions: Pseudomonas aeruginosa, ATCC27853, 24 h, ATCC strain
Protocol: as §1, §2

[1] = test system: Chinese hamster Ovary cells (CHO-K1); test: Cytotoxicity assay (WST-1 / Neutral Red); format: cell-based; conditions: 24-h incubation; for IC50: Cricetulus griseus, 24 h
Protocol: The cytotoxic activities of compounds were assessed on Chinese hamster Ovary cells (CHO-K1) provided from ATCC-LGC Standards Sarl (Molsheim, France). Cells were maintained in Mc Coy’s 5A (CHO) medium supplemented with 10% bovine calf serum, 2 mM glutamine, and 100 U mL^−1/10 µg mL^−1 penicillin/streptomycin mixtures. For the cytotoxicity experiments, they were seeded in 96-well plates and incubated at 37 °C in humidified atmosphere containing 5% CO2 overnight, then concentrations of compounds were incorporated in triplicate cultures. After a 24-h incubation period at 37 °C, cells were submitted to three successive washes in phosphate buffer saline (PBS) and cell viability was evaluated by two different vital dyes: • i. A first set of cell cultures was incubated in PBS containing 10% WST-1 for 30 min at 37 °C, 5% CO2. Cell viability was evaluated by the assessment of WST-1 absorbance at 450 nm in a microplate spectrophotometer. • ii. A second set of cell cultures was placed into Neutral Red medium (50 μg mL^−1 Neutral Red in complete medium) and incubated for 3 h at 37 °C, 5% CO2. Then the Neutral Red medium was removed and the distaining solution (50% ethanol, 1% acetic acid, 49% distilled water; 50 µL per well) was added into the wells. The plates were shaken for 15–20 min at room temperature in the dark. Cell viability was evaluated by the assessment of absorbance at 540 nm in a microplate spectrophotometer.
Results were expressed as percentages of cell viability about the control (culture medium-only), which corresponded to 100% cell viability. Dose-response curves were calculated by non-linear regression analysis with TableCurve 2D software (V 5.0.1) (Systat Software Inc., San Jose, CA, USA). The Inhibitory Concentration 50% (IC50) was defined as the concentration of compounds that induced a 50% decrease of viable cells.

[2] = test system: Gram-positive and Gram-negative human and veterinary reference strains; test: MIC against the panel of Gram-positive and Gram-negative reference strains; format: cell-based; conditions: for MIC: over several or all of the tested pathogens; for Therapeutic Ratio (TR): IC50 (CHO)/MIC, over several of the tested pathogens
Description: Typically, cytotoxicity was expressed as the half maximal inhibitory concentration (IC50), defined as the concentration of a compound that decreases cell viability by 50% relative to untreated cells. This parameter provides a quantitative measure of a compound’s toxic potential toward mammalian cells. To facilitate data interpretation, we defined the Therapeutic Ratio (TR) as the ratio of IC50 (µg/mL) to MIC (µg/mL). This dimensionless parameter provides a straightforward measure of antibacterial selectivity, allowing direct comparison of cytotoxicity and antibacterial potency. A high TR value indicates compounds with strong antibacterial activity at concentrations far below their cytotoxic threshold, whereas a TR close to unity reflects poor selectivity and limited therapeutic potential. […] Within the Claramine A series, variations in IC50 strongly impacted TR values (Figure 5).
as §1, §2

E. coli 1956 = test: MIC, broth microdilution; format: cell-based, Escherichia coli; conditions: Escherichia coli, 1956, 24 h
Protocol: as §1, §2

[3] = Homo sapiens, 24 h, read-out: MIC

Row | SMILES | MIC (S. aureus 340) [µg/mL] | MIC (S. aureus ATCC 25923) [µg/mL] | MIC (S. intermedius 1051997) [µg/mL] | MIC (E. faecalis ATCC29212) [µg/mL] | MIC (E. coli ATCC 25922) [µg/mL] | MIC (P. aeruginosa 1051575) [µg/mL] | MIC (P. aeruginosa ATCC 27853) [µg/mL] | IC50 CHO [1] [µg/mL] | IC50 [1] [µg/mL] | MIC ([2]; Homo sapiens, 24 h) [µg/mL] | MIC S. aureus 340 (S. aureus 340) [µg/mL] | MIC (E. coli 1956) [µg/mL] | MIC [2, 3] [µg/mL] | Therapeutic Ratio (TR) [2] | MIC [2] | MIC P. aeruginosa 1051575 (P. aeruginosa 1051575) [µg/mL]
1 | COC(=O)CCC(C)C1CCC2C3C(O)CC4CC(NCCCCCCN)CCC4(C)C3CC(O)C12C (stereo not drawn) [Claramine B06] | 3 (≈ 5.76 µM) | 3 (≈ 5.76 µM) | 2 (≈ 3.84 µM) | 7 (≈ 13.4 µM) | 7 (≈ 13.4 µM) | 13 (≈ 25 µM) | 13 (≈ 25 µM) | 60 (≈ 115 µM) | > 60 | 0.7 to 30 (≈ 1.34 to 57.6 µM) |  |  |  |  |  | 
2 | CC(C)OC(=O)CCC(C)C1CCC2C3CCC4CC(NCCCNCCCCNCCCN)CCC4(C)C3CC(O)C12C (stereo not drawn) [Claramine A01, 3-Spermino Isopropyl Deoxycholate] | < 4 | 2 (≈ 3.23 µM) | 8 (≈ 12.9 µM) | 30 (≈ 48.5 µM) | 4 (≈ 6.46 µM) | 15 (≈ 24.2 µM) | 8 (≈ 12.9 µM) | 43 (≈ 69.5 µM) | > 35 |  | 2 (≈ 3.23 µM) | 15 (≈ 24.2 µM) | < 15 | > 5 | increased membrane permeabilization and concomitant disruption of proton homeostasis | 
3 | CC(C)OC(=O)CCC(C)C1CCC2C3CCC4CC(NCCCNCCCNCCCN)CCC4(C)C3CC(O)C12C (stereo not drawn) [Claramine A02] | 2 (≈ 3.31 µM) | 4 (≈ 6.61 µM) | 2 (≈ 3.31 µM) | 8 (≈ 13.2 µM) | 8 (≈ 13.2 µM) | 8 (≈ 13.2 µM) | 8 (≈ 13.2 µM) |  | 51 (≈ 84.3 µM) |  |  | 15 (≈ 24.8 µM) | < 15 | > 5 |  | 
4 | COC(=O)CCC(C)C1CCC2C3C(O)CC4CC(NCCCNCCCCNCCCN)CCC4(C)C3CCC12C (stereo not drawn) [Claramine C01] | 4 (≈ 6.77 µM) | 4 (≈ 6.77 µM) | 2 (≈ 3.38 µM) | 15 (≈ 25.4 µM) | 30 (≈ 50.8 µM) | 7 (≈ 11.8 µM) | 30 (≈ 50.8 µM) |  | 24 (≈ 40.6 µM) |  |  | 60 (≈ 102 µM) |  |  |  | 
5 | CC(C)OC(=O)CCC(C)C1CCC2C3CCC4CC(NCCCNCCCCNCCCN)CCC4(C)C3CCC12C (stereo not drawn) [Claramine E01] | 4 (≈ 6.63 µM) | 4 (≈ 6.63 µM) | 2 (≈ 3.32 µM) | 8 (≈ 13.3 µM) | 15 (≈ 24.9 µM) | 8 (≈ 13.3 µM) | 15 (≈ 24.9 µM) |  | 24 (≈ 39.8 µM) |  |  | 8 (≈ 13.3 µM) |  |  |  | 
6 | CC(C)OC(=O)CCC(C)C1CCC2C3CCC4CC(NCCCNCCCNCCCN)CCC4(C)C3CCC12C (stereo not drawn) [Claramine E02] | 7 (≈ 11.9 µM) | 7 (≈ 11.9 µM) | 1 (≈ 1.7 µM) | 14 (≈ 23.8 µM) | 14 (≈ 23.8 µM) | 2 (≈ 3.4 µM) | 28 (≈ 47.5 µM) |  | 15 (≈ 25.5 µM) |  |  | 7 (≈ 11.9 µM) |  |  |  | 
7 | CC(C)OC(=O)CCC(C)C1CCC2C3C(O)CC4CC(NCCCNCCCCNCCCN)CCC4(C)C3CC(O)C12C (stereo not drawn) [Claramine B12] | 8 (≈ 12.6 µM) | 8 (≈ 12.6 µM) | 4 (≈ 6.3 µM) | 32 (≈ 50.4 µM) | 4 (≈ 6.3 µM) | 8 (≈ 12.6 µM) | 16 (≈ 25.2 µM) |  | 48 (≈ 75.6 µM) |  |  | 62 (≈ 97.6 µM) |  |  |  | 
8 | CC(C)OC(=O)CCC(C)C1CCC2C3C(O)CC4CC(NCCN(CCN)CCN)CCC4(C)C3CCC12C (stereo not drawn) [Claramine D10] |  | 28 (≈ 49.7 µM) | 7 (≈ 12.4 µM) | 56 (≈ 99.5 µM) | 110 (≈ 195 µM) |  | 110 (≈ 195 µM) | 80 (≈ 142 µM) |  |  | 28 (≈ 49.7 µM) | 56 (≈ 99.5 µM) |  |  |  | 14 (≈ 24.9 µM)
9 | CC(C)OC(=O)CCC(C)C1CCC2C3CCC4CC(NCCCN5CCN(CCCN)CC5)CCC4(C)C3CCC12C (stereo not drawn) [Claramine E05] | 8 (≈ 13.3 µM) | 15 (≈ 25 µM) | 15 (≈ 25 µM) | 30 (≈ 49.9 µM) | 15 (≈ 25 µM) | 8 (≈ 13.3 µM) | 60 (≈ 99.8 µM) | 50 (≈ 83.2 µM) | 46 (≈ 76.5 µM) |  |  | 15 (≈ 25 µM) |  |  |  | 
